Where “and” joins values, the source holds several entries; their conditions need not be identical. Identical values can stand only once.
Key:
[1] = biological target: T1, VHR (Dual Specificity Phosphatase 3) (Homo sapiens, UniProt P51452); experiment: PhosphataseProfiler screen: VHR; type: biochemical; conditions: replicates
T1 construct: purchased Eurofins Pharma Discovery Services UK
Protocol: (§1) Compound DJ001 was evaluated in a PhosphataseProfiler™ screen at 10 μM and 1 μM (2.7 μg/mL and 0.27 μg/mL) concentrations at Eurofins Pharma Discovery Services UK (Study number UK022-0004033) against a panel of 21 Phosphatases. In each experiment, the respective reference antagonist/agonist was tested directly with DJ001 and the data were compared with historical values determined at Eurofins. DJ001 compound inhibition was calculated as percentage inhibition of the enzymatic activity compared with control.

pERK1/2 in BM KSL cells = experiment: phospho-ERK1/2 immunofluorescence microscopy; type: cell-based, mouse; conditions: irradiated BM KSL cells
Protocol: Lab-Tek chamber slides were coated with fibronectin (25 µg/mL, Millipore Sigma #341635). Sorted BM KSL cells (1 × 10^4) were resuspended in 200 µL TSF media and added to each of the pre-coated wells and incubated overnight (37 °C/5% CO2). The next day, cells were serum starved for 30 min and then stimulated with DJ001 (1 µg/mL), EHT1864 (6 µg/mL), or equal volumes of DMSO for 5 min. Cells were washed once with PBS and fixed with 4% PFA for 10 min. Cells were permeabilized with 0.5% Triton/PBS (PRM) for 30 min and then blocked with 5% fetal bovine serum (FBS)/PRM for 1 h. The slide was then incubated with a phospho-ERK1/2 primary antibody (Cell Signaling, #4377, 1:200) for 1 h. The wells were washed three times and then incubated with a donkey anti-rabbit Alexa Fluor 488 secondary antibody (Thermo Fischer, #A21206, 1:200) at a 1:200 concentration for 1 h. The slide was washed three times and mounted with ProLong Gold Antifade Reagent with DAPI. Cells were imaged using a ×63 objective on a Zeiss Axio Imager M2 widefield fluorescence microscope with all microscope settings derived from imaging a secondary only control. Data were analyzed using Fiji (ImageJ). Briefly, the cell outline was identified by threshold levels and the mean fluorescence intensity within the cell area was quantified.

human CD34+CD38− cells = experiment: BCL2L1 and MCL-1 gene expression in irradiated human CD34+CD38− cells (qPCR); type: cell-based
From the text: For all studies, RNA was isolated using the Qiagen RNeasy micro kit (Qiagen). RNA was reverse transcribed using the High-Capacity cDNA Reverse Transcription Kit (ThermoFisher Scientific) and was then used for quantitative PCR with SYBR Select Master Mix (Life Technologies). Values were normalized to housekeeping gene Gapdh/GAPDH and given as ΔΔCt values normalized to media-treated, non-irradiated BM KSL cells (2(−ΔΔC(T)) method)[67].

BM KSL cells = experiment: CFC assay from 300 cGy-irradiated BM KSL cells, 3 day culture; type: cell-based, mouse
Protocol: CFC assays (colony-forming unit-granulocyte monocyte), burst-forming unit-erythroid, and CFU-GEMM were performed using MethoCult GF M3434 (Stemcell Technologies)[6]. […] Recombinant mouse SCF, Flt3 ligand, and TPO were purchased from R&D Systems. For competitive repopulation assays, BM cells were isolated from donor 10–12-week-old female CD45.2^+ mice. Recipient 10-week-old female CD45.1^+ B6.SJL mice were irradiated with 950 cGy TBI using a Cs137 irradiator and donor BM cells were administered via tail vein injection along with a competing dose of 1 × 10^5 non-irradiated host BM cells. Multilineage donor hematopoietic cell engraftment was measured in the PB by flow cytometry.

[2] = biological target: T2, PTPβ (Protein Tyrosine Phosphatase Receptor beta) (Homo sapiens, UniProt P23467); experiment: PhosphataseProfiler screen: PTPβ; type: biochemical; conditions: replicates
T2 construct: purchased Eurofins Pharma Discovery Services UK
Protocol: as §1

p250GAP in BM lin− cells = experiment: p250GAP phospho-tyrosine sandwich ELISA; type: cell-based, mouse
Protocol: Clear, pre-blocked Protein A-coated Microtiter wells (Fisher Scientific, #15132) were incubated with ARHGAP32 polyclonal antibody (Bioss, #bs-9296R, 1:500) in antibody dilution buffer (150 mM NaCl, 25 mM HEPES pH 7.2, 0.5% bovine serum albumin, 0.05% Tween 20) for 3 h at room temperature (RT). Subsequently, the plate was washed three times and phosphorylated p250GAP from BM lin^− cell lysate was added to each well. BM lin^− cells were collected in NP40 buffer (ThermoFisher Scientific; FNN0021) supplemented with 1× complete, Mini, EDTA-free Protease Inhibitor Cocktail (Sigma Aldrich; 4693159001) and 1× PhosSTOP (Sigma Aldrich; 4906845001). Following incubation for 2 h at 4 °C, the plate was completely emptied (without washing) and exposed to 50 μL of a fixation solution (0.5% formaldehyde in 300 mM NaCl, 20 mM sodium phosphate buffer, pH 7) for 10 min. The plate-bound, phosphorylated p250GAP was measured by a specific anti-phospho-tyrosine peroxidase-coupled antibody (Sigma Aldrich, #A5964-1VL, 1:500) in antibody dilution buffer. Incubation was for 1 h at RT. Peroxidase activity was measured by a Tecan Infinity plate reader using BM Chemiluminescence ELISA Substrate (Sigma Aldrich, #11582950001).

[3] = system: RAC1-GTP in BM lin− cells; experiment: G-LISA activation assay: RAC1-GTP; type: cell-based, mouse; conditions: for RAC1-GTP level (G-LISA): Supplementary Figure 7c
Protocol: The RAC1-GTP, RHOA-GTP, and CDC42-GTP activation levels in BM lin^− cells were measured using a colorimetric-based RAC1-, RHOA-, and CDC42 G-LISA Activation Assay Kit (Cytoskeleton, Inc.). BM cells from femurs and tibias were isolated from 12-week-old Ptprs^+/+ and Ptprs^−/− mice. Cells were then depleted of lineage-committed cells with Direct Lineage Cell Depletion Kit (Miltenyi Biotec, #130-110-470; 1:5). The BM lin^− cell fraction was then serum starved in Iscove’s modified Dulbecco’s medium (IMDM) and treated with either vehicle (equal amount of DMSO) or 1 μg/mL DJ001 for 10 min at 37 °C. After treatment, cells were washed with ice-cold PBS and then placed in lysis buffer supplemented with protease inhibitor. Lysate concentrations were measured by Pierce^TM BCA Protein Assay Kit (ThermoFisher Scientific). G-LISA was performed according to the manufacturer’s instructions. Briefly, 12.5 μg of lysates was added to a GTP-binding protein pre-coated plate and active RAC1-GTP, RHOA-GTP, or CDC42-GTP levels were measured at 490 nm using a PowerWave XS2 microplate reader (BioTek).

[4] = irradiated human CD34+CD38− cells, qPCR, replicates
[5] = BM KSL cells, 300 cGy, 3 days in TSF media + DJ001

T1 sequence (P51452 whole entry, species assumed): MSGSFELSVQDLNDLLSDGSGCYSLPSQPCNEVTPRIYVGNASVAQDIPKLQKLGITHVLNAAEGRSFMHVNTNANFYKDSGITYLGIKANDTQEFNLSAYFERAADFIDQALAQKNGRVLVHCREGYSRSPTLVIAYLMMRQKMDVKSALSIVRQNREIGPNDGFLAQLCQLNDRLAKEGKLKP
T2 sequence (P23467 23-1997): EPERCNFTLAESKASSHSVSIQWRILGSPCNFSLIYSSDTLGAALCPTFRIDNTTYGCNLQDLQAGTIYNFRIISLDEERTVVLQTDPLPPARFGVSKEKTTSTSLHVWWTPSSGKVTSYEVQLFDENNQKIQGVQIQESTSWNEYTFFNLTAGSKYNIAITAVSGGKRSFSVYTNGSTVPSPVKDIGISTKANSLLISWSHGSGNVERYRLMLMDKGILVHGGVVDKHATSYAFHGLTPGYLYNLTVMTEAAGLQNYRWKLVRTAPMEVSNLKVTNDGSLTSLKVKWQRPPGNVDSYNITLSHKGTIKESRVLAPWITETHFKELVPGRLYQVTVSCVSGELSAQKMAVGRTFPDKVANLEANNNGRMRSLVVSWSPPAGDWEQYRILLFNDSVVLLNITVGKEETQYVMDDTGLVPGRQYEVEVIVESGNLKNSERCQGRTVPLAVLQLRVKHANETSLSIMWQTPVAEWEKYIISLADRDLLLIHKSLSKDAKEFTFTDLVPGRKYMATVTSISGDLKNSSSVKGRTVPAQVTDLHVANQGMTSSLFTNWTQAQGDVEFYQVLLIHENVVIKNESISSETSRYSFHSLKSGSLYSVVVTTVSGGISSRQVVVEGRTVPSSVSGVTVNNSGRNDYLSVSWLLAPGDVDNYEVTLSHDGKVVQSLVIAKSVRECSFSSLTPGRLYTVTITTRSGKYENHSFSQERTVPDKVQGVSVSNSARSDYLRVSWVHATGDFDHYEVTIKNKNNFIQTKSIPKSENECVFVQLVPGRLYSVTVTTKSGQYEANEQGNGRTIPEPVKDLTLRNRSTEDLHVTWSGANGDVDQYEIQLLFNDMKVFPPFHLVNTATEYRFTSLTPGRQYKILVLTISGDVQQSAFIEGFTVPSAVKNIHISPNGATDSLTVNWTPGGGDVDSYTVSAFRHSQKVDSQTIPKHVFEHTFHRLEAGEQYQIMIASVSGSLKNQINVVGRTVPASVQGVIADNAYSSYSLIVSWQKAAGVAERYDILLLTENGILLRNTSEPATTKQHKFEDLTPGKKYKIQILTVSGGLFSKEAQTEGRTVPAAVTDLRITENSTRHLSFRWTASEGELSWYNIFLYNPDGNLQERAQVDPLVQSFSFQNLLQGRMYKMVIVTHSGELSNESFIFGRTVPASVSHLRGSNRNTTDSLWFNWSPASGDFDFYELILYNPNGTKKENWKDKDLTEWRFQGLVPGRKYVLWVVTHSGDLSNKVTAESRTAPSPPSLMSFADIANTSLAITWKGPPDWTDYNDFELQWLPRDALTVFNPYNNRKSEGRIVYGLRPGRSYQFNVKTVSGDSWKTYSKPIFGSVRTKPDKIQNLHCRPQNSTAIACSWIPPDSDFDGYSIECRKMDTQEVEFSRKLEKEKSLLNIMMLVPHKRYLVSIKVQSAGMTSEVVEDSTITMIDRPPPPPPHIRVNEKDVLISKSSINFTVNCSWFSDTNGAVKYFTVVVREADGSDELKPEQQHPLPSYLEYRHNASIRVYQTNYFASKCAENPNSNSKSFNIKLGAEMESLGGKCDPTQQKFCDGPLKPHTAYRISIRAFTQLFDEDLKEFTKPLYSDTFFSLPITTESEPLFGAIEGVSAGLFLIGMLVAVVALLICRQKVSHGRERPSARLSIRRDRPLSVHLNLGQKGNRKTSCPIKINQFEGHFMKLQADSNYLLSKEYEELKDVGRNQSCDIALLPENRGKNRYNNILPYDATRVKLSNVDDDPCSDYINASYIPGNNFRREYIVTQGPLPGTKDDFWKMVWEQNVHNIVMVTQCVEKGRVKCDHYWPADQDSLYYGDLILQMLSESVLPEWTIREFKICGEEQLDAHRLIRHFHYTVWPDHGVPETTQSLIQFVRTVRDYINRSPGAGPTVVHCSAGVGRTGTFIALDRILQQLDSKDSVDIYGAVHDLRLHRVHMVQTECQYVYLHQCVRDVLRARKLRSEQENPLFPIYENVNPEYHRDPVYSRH

SMILES	Supplementary Figure 1: VHR activity ([1]; 2.7 μg/mL DJ001)	Supplementary Figure 1: VHR activity ([1]; 0.27 g/mL DJ001)	ERK1/2 phosphorylation (pERK1/2 in BM KSL cells)	expression of BCL2L1 and MCL-1 (human CD34+CD38− cells; irradiated human CD34+ cells, 12 h after 300 cGy)	Figure 5d: gene expression, BCL-XL (human CD34+CD38− cells; [4])	Figure 5d: gene expression, MCL1 (human CD34+CD38− cells; [4])	recovery of BM CFCs and CFU-GEMM colonies vs control (BM KSL cells; 300 cGy, 1 μg/mL DJ001, 3 days)	BFU-E, numbers per replicate (BM KSL cells; [5])	GEMM, numbers per replicate (BM KSL cells; [5])	CFU-GEMM (BM KSL cells; Supplementary Figure 7g)	CFU-GEMM (BM KSL cells; Supplementary Figure 7d)	Supplementary Figure 1: PTP activity ([2]; 2.7 μg/mL DJ001)	Supplementary Figure 1: PTP activity ([2]; 0.27 g/mL DJ001)	phosphorylation of p250GAP (p250GAP in BM lin− cells; 1 µg/mL DJ001)	Figure 3a: p250GAP phosphorylation (phospho-tyrosine ELISA) (p250GAP in BM lin− cells; DJ001 vs media, individual replicates)	RAC1 activation ([3]; BM cells from Ptprs−/− mice, 1 μg/ml DJ001, 10 min)	RAC1-GTP level (G-LISA) ([3]; Ptprs+/+ cells)	RAC1-GTP level (G-LISA) ([3]; Ptprs-/- cells)
O=C(/C=C\Nc1cccc([N+](=O)[O-])c1)c1ccccc1 [DJ001, (Z)-3-((3-nitrophenyl)amino)-1-phenylprop-2-en-1-one]	94 and 84 and 95	100 and 101 and 98	induced ERK1/2 phosphorylation	increased the expression	7.91 and 7.15 and 7.38	3.75 and 3.41 and 4.98	increased recovery of BM CFCs	2 (3×) and 4 (2×) and 3 (5×) and 1 (2×)	5 (3×) and 3 (2×) and 4 (2×) and 6 (5×)	7	7	92 and 79 and 96	98 and 91 and 84	significantly increased phosphorylation of p250GAP	62.785 and 39.77 and 58.721 and 55.943 and 45.893 and 49.264 and 56.331			
O=C(/C=C\Nc1cc(F)cc(F)c1)c1ccccc1 [DJ009, (Z)-3-((3,5-difluorophenyl)amino)-1-phenylprop-2-en-1-one]																did not induce RAC1 activation	0.459 and 0.438 and 0.567	0.402 and 0.353 and 0.351 and 0.292
